How the values were obtained:
Format in all cases: cell-based
[1] = tested on: cervical (HeLa) cancer cell line; test: Radioactivity uptake of ^123I radiolabeled ADAM10 inhibitor in HeLa cells; details: for uptake (in words): Table 1 / FIG. 2 experiment
Procedure: (§1) In order to test the biological activity of the radiolabeled compound in vitro, two cell lines were chosen as esophageal (WHCO5) and cervical (HeLa) cancer cell lines (using [^123I]Nal as the control) and the radioactivity uptake was measured using a bore-hole or scintillation counter. […] The well plates were incubated for one hour in a humidified CO2 incubator at 37° C. The measurements were performed with a ^123I Multi Channel Analyzer, and during the incubation time, a calibration and counting efficiency determination was carried out on the channel.^33
(§2) After the one-hour incubation period, the growth medium was aspirated, leaving the adherent cell monolayers intact and the cell cultures rinsed twice with cold PBS to remove any residual extracellular radioactivity. The cell monolayers were lysed with 1 mL 1M NaOH, and 1 mL of each lysed suspension was transferred to a clean test tube. The data is presented as an average of triplicates and was corrected for ^123I decay using Eff Corr as the correcting factor, which considers the half-life and decay of the radionuclide over a specific time interval.
(§3) […] Data represents an average and standard deviation of 12 replicates using 0.3 μCi of ^123I-SN-311 and 200000 cells.

[2] = tested on: esophageal (WHCO5) cancer cell line; test: Radioactivity uptake of ^123I radiolabeled ADAM10 inhibitor in WHCO5 cells; details: for uptake (in words): WHCO5, Table 1 / FIG. 2 experiment
Procedure: as §1, §2, §3

[3] = tested on: cervical (HeLa) cancer cell line; test: Radioactivity uptake of ^123I radiolabeled ADAM10 inhibitor in HeLa cells; details: 3 mCi (title); for Average counts per min: 1 h incubation; for A(0) per well × Eff corr: decay corrected
[4] = tested on: esophageal (WHCO5) cancer cell line; test: Radioactivity uptake of ^123I radiolabeled ADAM10 inhibitor in WHCO5 cells; details: 3 mCi (title); for Average counts per min: 1 h incubation; for A(0) per well × Eff corr: decay corrected
[5] = tested on: cervical (HeLa) cancer cell line; test: ADAM10 biological activity, EC50 in HeLa cells
[6] = tested on: esophageal (WHCO5) cancer cell line; test: ADAM10 biological activity, EC50 in WHCO5 cells

Row | Structure (SMILES) | uptake (in words) [1] | uptake (in words) [2] | Bq per well ([3]; 50000 cells) [Bq] | Average counts per min ([3]; 50000 cells) [counts per min] | A(0) per well × Eff corr ([3]; 50000 cells) | Bq per well ([3]; 100000 cells) [Bq] | Average counts per min ([3]; 100000 cells) [counts per min] | A(0) per well × Eff corr ([3]; 100000 cells) | Bq per well ([3]; 150000 cells) [Bq] | Average counts per min ([3]; 150000 cells) [counts per min] | A(0) per well × Eff corr ([3]; 150000 cells) | Bq per well ([3]; 200000 cells) [Bq] | Average counts per min ([3]; 200000 cells) [counts per min] | A(0) per well × Eff corr ([3]; 200000 cells) | Bq per well ([4]; WHCO5, 50000 cells) [Bq] | Average counts per min ([4]; WHCO5, 50000 cells) [counts per min] | A(0) per well × Eff corr ([4]; WHCO5, 50000 cells) | Bq per well ([4]; WHCO5, 100000 cells) [Bq] | Average counts per min ([4]; WHCO5, 100000 cells) [counts per min] | A(0) per well × Eff corr ([4]; WHCO5, 100000 cells) | further results
1 | [123I-].[Na+] [[^123I]NaI, reference compound] | minimal uptake | minimal uptake | 148 | 1974 | 8857 | 149 | 1991 | 8934 | 173 | 2308 | 10355 | 161 | 2147 | 9635 | 297 | 3968 | 17807 | 308 | 4116 | 18470 | Bq per well ([4]; WHCO5, 150000 cells): 317 Bq; Average counts per min ([4]; WHCO5, 150000 cells): 4239 counts per min; A(0) per well × Eff corr ([4]; WHCO5, 150000 cells): 19021; Bq per well ([4]; WHCO5, 200000 cells): 357 Bq; Average counts per min ([4]; WHCO5, 200000 cells): 4772 counts per min; A(0) per well × Eff corr ([4]; WHCO5, 200000 cells): 21415
2 | CNC(=O)C(NC(=O)C(CCCc1ccc([123I])cc1)C(C)N(O)C=O)C(C)(C)C (centres unmarked) [^123I-SN-311] | clear uptake | clear uptake | 455 | 6080 | 27284 | 567 | 7582 | 34023 | 691 | 9236 | 41445 | 864 | 11555 | 51852 | 698 | 9337 | 41898 | 988 | 13207 | 59265 | uptake of the radiolabeled compound ([1]; 0.3 μCi per well, 200000 cells, average of 12 replicates): 81.76 Bq; uptake of the radiolabeled compound ([2]; WHCO5, 0.3 μCi per well, 200000 cells, average of 12 replicates): 127.63 Bq; Bq per well ([4]; WHCO5, 150000 cells): 1202 Bq; Average counts per min ([4]; WHCO5, 150000 cells): 16075 counts per min; A(0) per well × Eff corr ([4]; WHCO5, 150000 cells): 72135; Bq per well ([4]; WHCO5, 200000 cells): 1421 Bq; Average counts per min ([4]; WHCO5, 200000 cells): 18996 counts per min; A(0) per well × Eff corr ([4]; WHCO5, 200000 cells): 85240
3 | CNC(=O)[C@@H](NC(=O)[C@H](CCCc1ccccc1)[C@@H](C)N(O)C=O)C(C)(C)C [SN-311] | – | – | – | – | – | – | – | – | – | – | – | – | – | – | – | – | – | – | – | – | EC50 compared with G1254023X [5]: fall within the 95% confidence interval of that of G1254023X; EC50 compared with G1254023X [6]: fall within the 95% confidence interval of that of G1254023X

Source: patent US20230364272A1, “THERANOSTIC COMPOUNDS” (NRF ITHEMBA LABS, priority 2020, published 2023)
